Laboratory results reported in the supplement of paper PMC10307832.

Tests used:
Assay in all cases: relative viability (nuclei count vs DMSO), 5 days (fraction); higher = more cells survive
[1] = system: NCI-H1993
How it was run: (§1)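 Relative viability is defined as nuclei in treated wells over nuclei in vehicle wells. Duplicate plates were run and medians reported. Lung cancer cell lines in 1536-well plates were dosed by pin tool one day after seeding, with one drug or with a fixed anchor-drug dose plus five library-drug doses (not always all listed) in √10 steps, and nuclei were counted after 5 days.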

[2] = system: NCI-H1734
How it was run: as §1

[3] = system: HCC-827
How it was run: as §1

[4] = system: BEN
How it was run: as §1

[5] = system: HCC-366
How it was run: as §1

[6] = system: NCI-H2009
How it was run: as §1

[7] = system: SK-MES-1
How it was run: as §1

[8] = system: NCI-H2405
How it was run: as §1

[9] = system: LOU-NH91
How it was run: as §1

[10] = system: HARA
How it was run: as §1

[11] = system: NCI-H2087
How it was run: as §1

[12] = system: NCI-H1355
How it was run: as §1

[13] = system: NCI-H2170
How it was run: as §1

[14] = system: SK-LU-1
How it was run: as §1

[15] = system: NCI-H661
How it was run: as §1

[16] = system: NCI-H1395
How it was run: as §1

[17] = system: NCI-H2342
How it was run: as §1

[18] = system: NCI-H647
How it was run: as §1

[19] = system: NCI-H1792
How it was run: as §1

[20] = system: EKVX
How it was run: as §1

[21] = system: NCI-H1437
How it was run: as §1

[22] = system: NCI-H522
How it was run: as §1

COc1nc(C)cnc1NS(=O)(=O)c1cccnc1-c1ccc(-c2nnco2)cc1 [Zibotentan] + Nc1nc2[nH]cc(CCc3ccc(C(=O)N[C@@H](CCC(=O)O)C(=O)O)cc3)c2c(=O)[nH]1 [Pemetrexed] (partner 0.2 µM)
relative viability ([1]; first compound 0.08 µM): 0.695
relative viability ([1]; first compound 0.253 µM): 0.557
relative viability ([1]; first compound 0.8 µM): 0.557
relative viability ([1]; first compound 2.53 µM): 0.545
relative viability ([2]; first compound 0.08 µM): 0.404
relative viability ([2]; first compound 0.253 µM): 0.423
relative viability ([2]; first compound 0.8 µM): 0.396
relative viability ([2]; first compound 2.53 µM): 0.44
relative viability ([3]; first compound 0.08 µM): 0.262
relative viability ([3]; first compound 0.253 µM): 0.272
relative viability ([3]; first compound 0.8 µM): 0.241
relative viability ([3]; first compound 2.53 µM): 0.294
relative viability ([4]; first compound 0.08 µM): 0.781
relative viability ([4]; first compound 0.253 µM): 0.707
relative viability ([4]; first compound 0.8 µM): 0.774
relative viability ([4]; first compound 2.53 µM): 0.722
relative viability ([5]; first compound 0.08 µM): 0.163
relative viability ([5]; first compound 0.253 µM): 0.179
relative viability ([5]; first compound 0.8 µM): 0.0897
relative viability ([5]; first compound 2.53 µM): 0.147
relative viability ([6]; first compound 0.08 µM): 1.03
relative viability ([6]; first compound 0.253 µM): 1.01
relative viability ([6]; first compound 0.8 µM): 1.01
relative viability ([6]; first compound 2.53 µM): 1.03
relative viability ([7]; first compound 0.08 µM): 0.953
relative viability ([7]; first compound 0.253 µM): 0.815
relative viability ([7]; first compound 0.8 µM): 0.827
relative viability ([7]; first compound 2.53 µM): 1.03
relative viability ([8]; first compound 0.08 µM): 1.15
relative viability ([8]; first compound 0.253 µM): 0.975
relative viability ([8]; first compound 0.8 µM): 1.06
relative viability ([8]; first compound 2.53 µM): 1.21
relative viability ([9]; first compound 0.08 µM): 0.366
relative viability ([9]; first compound 0.253 µM): 0.357
relative viability ([9]; first compound 0.8 µM): 0.369
relative viability ([9]; first compound 2.53 µM): 0.408
relative viability ([10]; first compound 0.08 µM): 0.247
relative viability ([10]; first compound 0.8 µM): 0.183
relative viability ([10]; first compound 2.53 µM): 0.292
relative viability ([11]; first compound 0.08 µM): 0.677
relative viability ([11]; first compound 0.253 µM): 0.666
relative viability ([11]; first compound 0.8 µM): 0.536
relative viability ([11]; first compound 2.53 µM): 0.746
relative viability ([12]; first compound 0.08 µM): 1.04
relative viability ([12]; first compound 0.253 µM): 1.05
relative viability ([12]; first compound 0.8 µM): 1.03
relative viability ([12]; first compound 2.53 µM): 1.07
relative viability ([13]; first compound 0.08 µM): 0.264
relative viability ([13]; first compound 0.253 µM): 0.256
relative viability ([13]; first compound 0.8 µM): 0.445
relative viability ([13]; first compound 2.53 µM): 0.248
relative viability ([14]; first compound 0.08 µM): 0.95
relative viability ([14]; first compound 0.253 µM): 0.705
relative viability ([14]; first compound 0.8 µM): 1.01
relative viability ([14]; first compound 2.53 µM): 0.99
relative viability ([15]; first compound 0.08 µM): 0.931
relative viability ([15]; first compound 0.253 µM): 0.881
relative viability ([15]; first compound 0.8 µM): 0.873
relative viability ([15]; first compound 2.53 µM): 0.912
relative viability ([16]; first compound 0.08 µM): 1.01
relative viability ([16]; first compound 0.253 µM): 0.801
relative viability ([16]; first compound 0.8 µM): 0.81
relative viability ([16]; first compound 2.53 µM): 0.901
relative viability ([17]; first compound 0.08 µM): 0.769
relative viability ([17]; first compound 0.253 µM): 0.729
relative viability ([17]; first compound 0.8 µM): 0.761
relative viability ([17]; first compound 2.53 µM): 0.797
relative viability ([18]; first compound 0.08 µM): 0.165
relative viability ([18]; first compound 0.253 µM): 0.171
relative viability ([18]; first compound 0.8 µM): 0.181
relative viability ([18]; first compound 2.53 µM): 0.201
relative viability ([19]; first compound 0.08 µM): 0.911
relative viability ([19]; first compound 0.253 µM): 0.662
relative viability ([19]; first compound 0.8 µM): 0.813
relative viability ([19]; first compound 2.53 µM): 1.14
relative viability ([20]; first compound 0.08 µM): 0.347
relative viability ([20]; first compound 0.253 µM): 0.384
relative viability ([20]; first compound 0.8 µM): 0.372
relative viability ([20]; first compound 2.53 µM): 0.463
relative viability ([21]; first compound 0.08 µM): 0.35
relative viability ([21]; first compound 0.253 µM): 0.306
relative viability ([21]; first compound 0.8 µM): 0.281
relative viability ([21]; first compound 2.53 µM): 0.32
relative viability ([22]; first compound 0.08 µM): 0.909
relative viability ([22]; first compound 0.253 µM): 1.03
relative viability ([22]; first compound 0.8 µM): 0.881
relative viability ([22]; first compound 2.53 µM): 0.758
